Activity calls are given as the source filed them. The rule behind the calls is not given here.
Experiments:
[1] = molecular target: T1, Peroxisome proliferator-activated receptor gamma (Homo sapiens, UniProt P37231); experiment: Inverse agonist activity at GST tagged human PPARgamma LBD (231 to 505 residues) expressed in Escherichia coli BL21(DE3) assessed as recruitment of fluorescein labeled corepressor NCOR2 Smrt-ID2 peptide to PPARgamma LBD incubated for 24 hrs by LanthaScreen TR-FRET assay
T1 sequence (P37231 whole entry): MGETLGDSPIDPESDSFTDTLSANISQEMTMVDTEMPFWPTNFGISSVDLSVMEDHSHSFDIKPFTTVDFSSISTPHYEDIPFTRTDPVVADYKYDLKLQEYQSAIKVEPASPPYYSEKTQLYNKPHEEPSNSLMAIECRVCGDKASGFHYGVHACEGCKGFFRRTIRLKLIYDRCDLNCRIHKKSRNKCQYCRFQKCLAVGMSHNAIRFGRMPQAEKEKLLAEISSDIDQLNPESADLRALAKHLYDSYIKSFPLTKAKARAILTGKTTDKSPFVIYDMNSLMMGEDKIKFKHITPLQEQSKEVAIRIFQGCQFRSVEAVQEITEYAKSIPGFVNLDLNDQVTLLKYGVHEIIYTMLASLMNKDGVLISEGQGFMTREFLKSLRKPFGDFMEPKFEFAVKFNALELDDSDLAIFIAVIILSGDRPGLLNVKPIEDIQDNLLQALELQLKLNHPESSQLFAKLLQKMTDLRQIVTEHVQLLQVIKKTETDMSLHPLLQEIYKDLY

[2] = molecular target: T1, Peroxisome proliferator-activated receptor gamma; experiment: Inverse agonist activity at human PPARgamma in human RT112/84 transfected with NLuc-fused FABP4 assessed as reduction in PPARgamma transactivation incubated for 6 to 18 hrs by Nano-Glo luciferase assay; format: cell-based
[3] = Antiproliferative activity against human UM-UC-9 assessed as inhibition of cell proliferation measured after 7 days by IncuCyte live-cell imaging assay; settings: UM-UC-9, 168 h
[4] = Antiproliferative activity against human UM-UC-9 assessed as inhibition of cell proliferation by measuring maximum efficacy after 7 days by IncuCyte live-cell imaging assay; format: functional; settings: UM-UC-9, 168 h, time 7 day
[5] = molecular target: T2, Peroxisome proliferator-activated receptor alpha (Homo sapiens, UniProt Q07869); experiment: Agonist activity at human PPARalpha expressed in CHO cells co-expressing GAL4-NHR-LBD assessed as transcriptional activation preincubated for 6 hrs followed by luciferin addition by luminescence method; format: cell-based
T2 sequence (Q07869 whole entry): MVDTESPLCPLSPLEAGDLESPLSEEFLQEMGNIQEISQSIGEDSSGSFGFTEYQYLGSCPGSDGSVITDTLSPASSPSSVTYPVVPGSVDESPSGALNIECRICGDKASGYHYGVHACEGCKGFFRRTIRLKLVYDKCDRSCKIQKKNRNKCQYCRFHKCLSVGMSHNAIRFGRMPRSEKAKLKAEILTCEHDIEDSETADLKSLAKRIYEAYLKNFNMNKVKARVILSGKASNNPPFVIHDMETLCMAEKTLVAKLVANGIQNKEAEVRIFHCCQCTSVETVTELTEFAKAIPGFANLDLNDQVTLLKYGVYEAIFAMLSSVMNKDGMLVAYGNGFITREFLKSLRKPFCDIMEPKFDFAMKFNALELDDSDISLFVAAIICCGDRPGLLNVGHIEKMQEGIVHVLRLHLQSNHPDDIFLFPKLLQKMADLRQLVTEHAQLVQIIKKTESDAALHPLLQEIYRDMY

[6] = molecular target: T3, Peroxisome proliferator-activated receptor delta (Homo sapiens, UniProt Q03181); experiment: Inverse agonist activity at human PPARdelta expressed in CHO cells co-expressing GAL4-NHR-LBD assessed as transcriptional repression preincubated for 6 hrs followed by luciferin addition by luminescence method; format: cell-based
T3 sequence (Q03181 whole entry): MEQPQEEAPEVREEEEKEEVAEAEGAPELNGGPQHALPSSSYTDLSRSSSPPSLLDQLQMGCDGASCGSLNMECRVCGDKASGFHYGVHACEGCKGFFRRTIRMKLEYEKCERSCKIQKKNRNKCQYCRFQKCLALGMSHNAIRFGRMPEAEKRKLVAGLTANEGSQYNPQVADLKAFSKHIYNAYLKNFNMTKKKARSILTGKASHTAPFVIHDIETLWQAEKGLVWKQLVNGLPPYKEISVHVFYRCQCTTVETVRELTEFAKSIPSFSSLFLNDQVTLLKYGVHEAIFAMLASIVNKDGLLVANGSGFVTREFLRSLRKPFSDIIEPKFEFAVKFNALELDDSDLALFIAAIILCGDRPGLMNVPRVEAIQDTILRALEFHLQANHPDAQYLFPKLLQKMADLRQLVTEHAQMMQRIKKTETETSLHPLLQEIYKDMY

[7] = molecular target: T4, Peroxisome proliferator-activated receptor gamma (Mus musculus) (UniProt P37238); experiment: Inverse agonist activity at PPARgamma in NMRI-nu/nu mouse assessed as reduction in Fabp4 mRNA expression in adipose tissue at 100 mg/kg for 3 days and measured 6 hrs last dose by qPCR analysis; format: organism-based; settings: time 3.0 day
T4 sequence (whole entry): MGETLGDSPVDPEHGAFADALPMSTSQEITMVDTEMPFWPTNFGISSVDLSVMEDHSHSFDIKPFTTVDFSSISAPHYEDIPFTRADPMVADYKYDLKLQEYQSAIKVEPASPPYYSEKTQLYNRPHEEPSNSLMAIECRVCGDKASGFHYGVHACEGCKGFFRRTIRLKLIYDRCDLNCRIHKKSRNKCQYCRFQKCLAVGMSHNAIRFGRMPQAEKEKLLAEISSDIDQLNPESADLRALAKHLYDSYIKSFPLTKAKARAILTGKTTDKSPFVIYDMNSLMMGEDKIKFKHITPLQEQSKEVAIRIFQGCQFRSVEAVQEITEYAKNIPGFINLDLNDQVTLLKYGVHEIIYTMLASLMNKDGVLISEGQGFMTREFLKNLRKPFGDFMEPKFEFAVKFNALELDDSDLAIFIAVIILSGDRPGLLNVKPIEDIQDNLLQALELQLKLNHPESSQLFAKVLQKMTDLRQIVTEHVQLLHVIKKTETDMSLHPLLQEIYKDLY

[8] = molecular target: T5, Peroxisome proliferator-activated receptor alpha (Homo sapiens) (UniProt Q07869); experiment: Agonist activity at human PPARalpha expressed in CHO cells co-expressing GAL4-NHR-LBD assessed as transcriptional activation by measuring maximum efficacy preincubated for 6 hrs followed by luciferin addition by luminescence method; format: cell-based; settings: filed as agonist
T5 sequence (whole entry): T2 sequence (Q07869 whole entry)

Compound	EC50 [1] [µM]	IC50 [2] [µM]	other results
Cc1cc(C(=O)NCc2ccccc2)cc(C(=O)Nc2ccccc2)c1Cl	> 33	> 5	–
Cc1c(C)n(Cc2ccc(Cl)c(O[C@@H](C)C(=O)O)c2)c2ccc(C(=O)N[C@@H](C)c3ccc(C(C)(C)C)cc3)cc12	–	–	IC50 [5]: 0.935 µM; IC50 [6]: 9 µM; Activity [7]: inactive
O=C(NCc1ccc(Cl)cc1)c1ccc(Cl)c(C(=O)Nc2ccccc2)c1	7.2	> 5	–
O=C(NCc1ccccc1)c1ccc(F)c(C(=O)Nc2ccccc2)c1	> 5	> 5	–
O=C(Nc1ccncc1)c1cc([N+](=O)[O-])ccc1Cl	–	–	IC50 [5]: 2.95 µM; Emax [8]: 289%; IC50 [6]: > 5 µM

Now from value to molecule, other results behind:

EC50 [1] [µM]	IC50 [2] [µM]	Compound	other results
0.031	–	COCCOCc1cc(F)ccc1CNC(=O)c1cc(C(=O)Nc2ccc(C(F)(F)F)cc2C)c(Cl)cc1F	–
3	> 5	Cc1cccc(CNC(=O)c2ccc(Cl)c(C(=O)Nc3ccccc3)c2)c1	–
0.23	–	Cc1cccc(-c2nc3cc(NC(=O)c4cc(C(=O)NCc5ccc(F)c(F)c5)c(F)cc4Cl)ccc3o2)c1	IC50 [3]: 0.0187 µM; Emax [4]: 93%
1.77	1.04	Cc1ccccc1CNC(=O)c1ccc(Cl)c(C(=O)Nc2ccccc2)c1	–

— ChEMBL document CHEMBL5236643, “Discovery and characterization of orally bioavailable 4-chloro-6-fluoroisophthalamides as covalent PPARG inverse-agonists” (Bioorg Med Chem, 2023)
